Measurements: US20230158177A1, “HYPOXIA-TARGETING CONTRAST AGENT AND METHODS OF USE THEREOF” (Arizona Board of Regents on behalf of Arizona State …, priority 2021, published 2023)
Values joined by “and” are separate entries in the source; they are usually repeats but may differ in a detail not shown here. Equal values may be shown once.

Experiments:
[1] = mouse; cited from earlier work
[2] = cited from earlier work
[3] = Relaxometry: relaxivity in a water phantom at 7T; type: physicochemical; details: for longitudinal relaxivity r1 / transverse relaxivity r2: in water; for longitudinal relaxivity r1: slope of linear fit of R1 vs [C]; for transverse relaxivity r2: slope of linear fit of R2 vs [C]
Protocol: The basic paramagnetic properties i.e., relaxivity of chelated DFOB (FOB) and FOBNI was measured at 7T using a preclinical Bruker MRI scanner. The relaxivity of the two molecules were studied using a home-made 3D printed phantom capable of controlling temperature. The phantoms contained nine different concentrations of each contrast agents in water from 0-4 mM for FOB and 0-10 mM for FOBNI. The imaging parameters for this study were as matrix size 64×64, the field of view 2.56 cm×2.56 cm and TR=205-5000 ms, […] for the T1 map and TR=5000 ms, TE=8-200 ms for the T2 map. The MR images were later analyzed in a homemade MATLAB code to calculate the T1 and T2 values for each pixel. Using the T1 and T2 values for each concentration and Ri=[C]ri+Ri^0 equation the relaxivity values were calculated by a linear fit on Ri and [C]. Where Ri (i=1 or 2) is the relaxation rate of the tissue, [C] is the concentration of the contrast agent, ri is the relaxivity of the contrast agent and the Ri^0 is the intrinsic relaxation rate of the water. FIG. 7A and FIG. 7B show the T1 and T2 maps for the phantom and a concentration map indicating the concentrations of FOB and FOBNI in each respective well.
FIG. 8 represents the result of the linear fit for R1 and R2 for the two contrast agents. […] Using the linear fit function, the following equations are acquired for relaxation rate vs concentration, R1=(2.06±0.06)[C]+(0.49±0.04) (in red) and R2=(2.75±0.06)[C]+(3.75±0.08) (in gray) for FOB and R1=(0.51±0.1)[C]+(0.44±0.03) (in red) and R2=(4.51±0.14)[C]+(3.87±0.19) (in gray) for FOBNI.

3T3 fibroblast cells = assay: In vitro hypoxia-targeting study: T1 and T2 MRI of cell pellets; type: cell-based; details: for Relaxation time T1 of exposed cell pellets / Relaxation time T2 of exposed cell pellets: 7 T; for contrast agent concentration in cell pellet: from the relaxivity equation for transverse relaxation rate
Protocol: The in vitro study for hypoxia-targeting efficiency of FOBNI was assessed in a hypoxia chamber glove box capable of adjusting oxygen concentration, temperature and CO2 and equipped with a small centrifuge unit. The 3T3 fibroblast cells were grown in a T-150 flask once they reached the confluency of 80% divided equally to five T-75 flasks to ensure the flasks were identical before being exposed to contrast agents and different conditions. The cells were supplied with Dulbecco's Modified Eagle Medium (DMEM), fetal bovine serum (10%), and penicillin/streptomycin (1%). Once the five flasks reached the confluency of 75-80% the growth media were replaced with the following mediums.
Two flasks were supplied with fresh culture media supplemented with DFOB, two with fresh media and FOBNI and one with just fresh media as control. The control and one FOB and one FOBNI labeled flasks were placed in a regular cell incubator at 21% O2, 5% CO2 and 37° C. and the remaining two flasks were transferred to the hypoxia chamber at 1% O2, 5% CO2 and 37° C. All the samples were kept at defined conditions for 4 h before removing the media. The cells were washed three times with phosphate buffered saline (PBS) at the end of four hour incubation and were detached by being exposed to trypsin for 5 min. The collected cell mixtures in Eppendorf Tube were centrifuged at 1000 rpm for 5 min and the medium was removed. Afterwards, the cell pellets were suspended in PBS and again centrifuged three times to ensure the removal of unbound or free DFOB or FOBNI. Finally, to keep the cell pellets intact the tubes were filled with low temperature liquid agar and placed in the fridge to solidify.
MR Imaging—The samples were imaged using a rat brain surface coil at 7 T. The voxel wise T1 and T2 maps of the samples were calculated using MATLAB based software and the images from Variable Repetition Time Fast Spin Echo (VTR) Sequence and multi-echo spin echo sequence, respectively. The VTR sequence was performed with TE=8 ms and thirteen TR values ranging between (205-5000 ms). The images in multi-echo sequence were acquired with TE ranging between 8-200 ms and TR=5000 ms. The field of view was 2.56 cm×2.56 cm and the matrix size of 64×64 for all the experiments. The ROI analysis to calculate the T1 and T2 values for cell pellets were performed in MATLAB.
Statistics—All results are reported as means±standard deviations (SD). For statistical comparisons unpaired t-test was employed and confidence intervals α=0.05, 95% was used between specific means.

NIH-3T3 fibroblast cells = assay: Cytotoxicity: cell viability assay using Alamar blue; type: cell-based; details: for cell viability (Alamar blue): hypoxic and normoxic conditions
Protocol: To study the cytotoxicity of DFOB, NIH-3T3 fibroblast cells were used. The cells were exposed to different concentrations of DFOB for 4, 8, and 24 h under either hypoxic or normoxic conditions. Afterwards, the cells were washed with PBS and exposed to 10% Alamar blue in media for 4 h in their respective conditions. To assess the viability of the cells 100 µl of the exposed Alamar blue was collected in a 96-well plate using the spectrophotometer the absorbance was measured at 570 nm and 600 nm excitations and the viability of the cells was calculated.
Cytotoxicity assay for FOBNI was a viability test using Alamar blue. The results are summarized in FIG. 5 for normoxic conditions and FIG. 6 for hypoxic conditions. […] The increased viability, which is a translation of reduced Alamar blue in control samples of 8 h and 24 h can be attributed to the increased number of the cells in the control wells. After seeding the cells the cell number in the control wells could increase and that can influence the amount of reduced compound in absorbance test.

[4] = hypoxic (H), 1% O2, 4 h exposure
[5] = normoxic (N), 21% O2, 4 h exposure

Compound | circulation half-time [1] | cell permeability [2] | longitudinal relaxivity r1 [3] | transverse relaxivity r2 [3] | Relaxation time T1 of exposed cell pellets (3T3 fibroblast cells; [4]) [ms] | Relaxation time T2 of exposed cell pellets (3T3 fibroblast cells; [4]) [ms] | contrast agent concentration in cell pellet (3T3 fibroblast cells; hypoxic) [mM] | Relaxation time T1 of exposed cell pellets (3T3 fibroblast cells; [5]) [ms] | Relaxation time T2 of exposed cell pellets (3T3 fibroblast cells; [5]) | contrast agent concentration in cell pellet (3T3 fibroblast cells; normoxic) [mM] | decrease in r1 value compared to FOB [3] | cell viability (Alamar blue) (NIH-3T3 fibroblast cells; 100-400 μM, up to 24 h exposure, control of the 4 h exposure used, n=3) | cell viability (Alamar blue) (NIH-3T3 fibroblast cells; after 8 h and 24 h of exposure, control of each time point used) | cytocompatibility (cell viability assay) (NIH-3T3 fibroblast cells; up to 8 h of direct exposure to the cells) | increase in pellet concentration, FOBNI vs FOB (3T3 fibroblast cells; hypoxic condition) [fold] | cellular uptake after addition of nitroimidazole moiety (3T3 fibroblast cells; vs FOB, seen in T2 values under normoxic conditions)
CC(=O)N(O)CCCCCNC(=O)CCC(=O)N(O)CCCCCNC(=O)CCC(=O)N(O)CCCCCN [DFOB, Deferoxamine B] | about 5 min | very low cell permeability |  |  |  |  |  |  |  |  |  |  |  |  |  | 
CC(=O)N([O-])CCCCCNC(=O)CCC(=O)N([O-])CCCCCNC(=O)CCC(=O)N([O-])CCCCCN.[Fe+3] [FOB, Feroxamine B, reference compound] |  |  | 2.06 ± 0.06 L/s/mmol | 2.75±0.06 | 2002 ± 143 | 75.5 ± 15.0 | 3.45 | 2280 ± 222 | 89.9 ± 11.21 ms and 89.9 ± 11.2 ms | 2.67 |  |  |  |  |  | 
Feroxamine B conjugate of 2-nitroimidazole [FOBNI] |  |  | 0.51 L/s/mmol and 0.51 ± 0.1 L/s/mmol | 4.51±0.14 | 1909 ± 162 | 32.4 ± 3.4 | 5.98 | 1793 ± 165 | 59.3 ± 9.3 ms | 2.88 | about 75% | no significant reduction | significant drop in cell viability | cytocompatibility | 1.73 | increased the cellular uptake
